# Experimental data taken from patent US20150158845A1, “5-HALOGEN-SUBSTITUTED OXINDOLE DERIVATIVES AND USE THEREOF FOR TREATING VASOPRESSIN-DEPENDENT DISEASES” (ABBVIE DEUTSCHLAND GMBH & CO. KG, priority 2007, published 2015).
# How the values were obtained:
# [1] = target: human vasopressin V1a receptor (Homo sapiens, UniProt P37288); assay: Vasopressin V1a receptor binding assay; details: selectivity: quotient of Ki at human V1a and Ki at human V1b
# [2] = Determination of the microsomal half-life / microsomal clearance; type: in vitro ADME; details: human liver microsomes, 0.5 μM test substance, 0.25 mg microsomal protein/ml; for microsomal CLint at 0.5 μM: pH 7.4
# Procedure: 5. Determination of the Microsomal Half-Life:
# The metabolic stability of the compounds of the invention was determined in the following assay.
# The test substances were incubated in a concentration of 0.5 μM as follows: 0.5 μM test substance are preincubated together with liver microsomes from different species (from rat, human or other species) (0.25 mg of microsomal protein/ml) in 0.05 M potassium phosphate buffer of pH 7.4 in microtiter plates at 37° C. for 5 min. The reaction is started by adding NADPH (1 mg/mL). After 0, 5, 10, 15, 20 and 30 min, 50 μl aliquots are removed, and the reaction is immediately stopped and cooled with the same volume of acetonitrile. The samples are frozen until analyzed. The remaining concentration of undegraded test substance is determined by MSMS. The half-life (T½) is determined from the gradient of the signal of test substance/unit time plot, it being possible to calculate the half-life of the test substance, assuming first order kinetics, from the decrease in the concentration of the compound with time. The microsomal clearance (mCl) is calculated from mCl=In2/T½/(content of microsomal protein in mg/ml)×1000 […] (modified from references: Di, The Society for Biomoleculur Screening, 2003, 453-462; Obach, DMD, 1999 vol 27. N 11, 1350-1359).
# [3] = target: T1, human vasopressin V1b receptor (Homo sapiens, UniProt P47901); assay: Vasopressin V1b receptor binding assay; details: membranes from CHO-K1 cells with human V1b receptor, 1.5 nM 3H-AVP
# T1 construct: expressed in transfected cells; host or cells: CHO-K1 (clone 3H2; cell line hV1b-3H2_CHO), membrane preparation
# T1 sequence (P47901 1-424): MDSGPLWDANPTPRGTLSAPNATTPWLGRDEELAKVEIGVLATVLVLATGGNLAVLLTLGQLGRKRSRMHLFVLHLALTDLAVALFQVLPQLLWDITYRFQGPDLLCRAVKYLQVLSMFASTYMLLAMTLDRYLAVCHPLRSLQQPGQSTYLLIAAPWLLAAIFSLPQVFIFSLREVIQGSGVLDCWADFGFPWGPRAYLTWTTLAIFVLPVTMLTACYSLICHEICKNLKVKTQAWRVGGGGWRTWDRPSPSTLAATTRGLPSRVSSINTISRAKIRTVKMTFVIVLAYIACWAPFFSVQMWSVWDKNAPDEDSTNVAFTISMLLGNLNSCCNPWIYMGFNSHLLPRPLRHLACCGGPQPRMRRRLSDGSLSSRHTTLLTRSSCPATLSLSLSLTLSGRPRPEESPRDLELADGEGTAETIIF
# Procedure: 1. Vasopressin V1b Receptor Binding Assay:
# The substance concentration was further diluted 1:5 in the assay mixture (2% DMSO in the mixture).
# The nonspecific binding was determined with 1 M AVP (Bachem # H1780). All determinations were carried out as triplicate determinations.
# Sequence of human vasopressin V1a receptor (P37288 whole entry): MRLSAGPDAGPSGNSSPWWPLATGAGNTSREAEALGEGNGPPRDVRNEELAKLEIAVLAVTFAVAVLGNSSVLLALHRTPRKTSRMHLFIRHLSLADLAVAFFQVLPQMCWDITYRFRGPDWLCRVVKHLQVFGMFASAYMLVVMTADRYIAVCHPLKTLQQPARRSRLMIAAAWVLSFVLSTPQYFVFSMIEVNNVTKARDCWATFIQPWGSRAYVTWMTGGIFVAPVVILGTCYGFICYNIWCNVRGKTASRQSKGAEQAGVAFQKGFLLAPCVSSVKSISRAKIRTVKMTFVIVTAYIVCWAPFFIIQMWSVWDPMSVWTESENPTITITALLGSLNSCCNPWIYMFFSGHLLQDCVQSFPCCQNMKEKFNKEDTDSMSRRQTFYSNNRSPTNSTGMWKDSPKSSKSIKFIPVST
microsomal CLint at 0.5 μM [2],Compound,Ki(h-V1a)/Ki(h-V1b) [1],Human microsomal clearance [2],Ki [3]
–,"CCOc1ncc(C)cc1C1(NC(=O)N2CCN(C3CCN(CC)CC3)CC2)C(=O)N(S(=O)(=O)c2ccc(OC)cc2OC)c2ccc(Cl)cc21.O=C(O)C(F)(F)F (racemic) [Example 15, (±)-4-(1-Ethylpiperidin-4-yl)piperazine-1-[5-chloro-1-(2,4-dimethoxyphenylsulfonyl)-3-(2-ethoxy-5-methylpyridin-3-yl)-2-oxo-2,3-dihydro-1H-indol-3-yl]carboxamide, trifluoroacetic acid salt]",++ (25-75),+ (>75-100 μl min^−1 mg^−1),< 1 nM
< 50 µL/min/mg,"CCOc1ncccc1C1(NC(=O)N2CCN(C3CCN(C)CC3)CC2)C(=O)N(S(=O)(=O)c2ccc(OC)cc2OC)c2ccc(Cl)cc21 (single isomer, unassigned; (+)) [Example 1B, (+)-4-(1-Methylpiperidin-4-yl)piperazine-1-[5-chloro-1-(2,4-dimethoxyphenylsulfonyl)-3-(2-ethoxypyridin-3-yl)-2-oxo-2,3-dihydro-1H-indol-3-yl]carboxamide]",+++ (>75),–,< 1 nM
–,"CCOc1ncc(C)cc1C1(NC(=O)N2CCC(N3CCN(C)CC3)CC2)C(=O)N(S(=O)(=O)c2ccc(OC)cc2OC)c2ccc(Cl)cc21.O=C(O)C(F)(F)F (racemic) [Example 16, (±)-4-(4-Methylpiperazin-1-yl)piperidine-1-[5-chloro-1-(2,4-dimethoxyphenylsulfonyl)-3-(2-ethoxy-5-methylpyridin-3-yl)-2-oxo-2,3-dihydro-1H-indol-3-yl]carboxamide, trifluoroacetic acid salt]",+ (10-<25),+ (>75-100 μl min^−1 mg^−1),< 1 nM
75 to 100 µL/min/mg,"CCOc1ncccc1C1(NC(=O)N2CCN(C3CCN(C)CC3)CC2)C(=O)N(S(=O)(=O)c2ccc(OC)cc2OC)c2ccc(Cl)cc21 (racemic) [Example 1, (±)-4-(1-Methylpiperidin-4-yl)piperazin-1-[5-chloro-1-(2,4-dimethoxyphenylsulfonyl)-3-(2-ethoxypyridin-3-yl)-2-oxo-2,3-dihydro-1H-indol-3-yl]carboxamide]",+++ (>75),–,< 1 nM
75 to 100 µL/min/mg,"CCOc1ncccc1C1(NC(=O)N2CCC(C3CCN(C)CC3)CC2)C(=O)N(S(=O)(=O)c2ccc(OC)cc2OC)c2ccc(Cl)cc21 (racemic) [Example 13, (±)-1′-Methyl-[4,4′]bipiperidinyl-1-[5-chloro-1-(2,4-dimethoxyphenylsulfonyl)-3-(2-ethoxypyridin-3-yl)-2-oxo-2,3-dihydro-1H-indol-3-yl]carboxamide]",++ (25-75),–,< 1 nM
–,"CCOc1ncc(C)cc1C1(NC(=O)N2CCC(N3CCN(CC)CC3)CC2)C(=O)N(S(=O)(=O)c2ccc(OC)cc2OC)c2ccc(Cl)cc21.O=C(O)C(F)(F)F (racemic) [Example 17, (±)-4-(4-Ethylpiperazin-1-yl)piperidine-1-[5-chloro-1-(2,4-dimethoxyphenylsulfonyl)-3-(2-ethoxy-5-methylpyridin-3-yl)-2-oxo-2,3-dihydro-1H-indol-3-yl]carboxamide, trifluoroacetic acid salt]",+ (10-<25),+ (>75-100 μl min^−1 mg^−1),< 1 nM
50 to 75 µL/min/mg,"CCOc1ncccc1C1(NC(=O)N2CCN(C3CCN(CC)CC3)CC2)C(=O)N(S(=O)(=O)c2ccc(OC)cc2OC)c2ccc(Cl)cc21 (single isomer, unassigned; (+)) [Example 4B, (+)-4-(1-Ethylpiperidin-4-yl)piperazine-1-[5-chloro-1-(2,4-dimethoxyphenylsulfonyl)-3-(2-ethoxypyridin-3-yl)-2-oxo-2,3-dihydro-1H-indol-3-yl]carboxamide]",+++ (>75),–,< 1 nM
75 to 100 µL/min/mg,"CCOc1ncccc1C1(NC(=O)N2CCC(N3CCN(CC)CC3)CC2)C(=O)N(S(=O)(=O)c2ccc(OC)cc2OC)c2ccc(Cl)cc21 (single isomer, unassigned; (+)) [Example 8B, (+)-4-(4-Ethylpiperazin-1-yl)piperidine-1-[5-chloro-1-(2,4-dimethoxyphenylsulfonyl)-3-(2-ethoxypyridin-3-yl)-2-oxo-2,3-dihydro-1H-indol-3-yl]carboxamide]",+++ (>75),–,< 1 nM
–,"CCOc1ncccc1C1(NC(=O)N2CCN(C3CCN(C)CC3)CC2)C(=O)N(S(=O)(=O)c2ccccc2)c2ccc(Cl)cc21.O=C(O)C(F)(F)F (racemic) [Example 3, (±)-4-(1-Methylpiperidin-4-yl)piperazine-1-[1-phenylsulfonyl-5-chloro-3-(2-ethoxypyridin-3-yl)-2-oxo-2,3-dihydro-1H-indol-3-yl]carboxamide, trifluoroacetic acid salt]",++ (25-75),+++ (<50 μl min^−1 mg^−1),1 to 10 nM
< 50 µL/min/mg,"CCOc1ncccc1C1(NC(=O)N2CCC(N3CCN(C)CC3)CC2)C(=O)N(S(=O)(=O)c2ccc(OC)cc2OC)c2ccc(Cl)cc21 (single isomer, unassigned; (+)) [Example 5B, (+)-4-(4-Methylpiperazin-1-yl)piperidine-1-[5-chloro-1-(2,4-dimethoxyphenylsulfonyl)-3-(2-ethoxypyridin-3-yl)-2-oxo-2,3-dihydro-1H-indol-3-yl]carboxamide]",+++ (>75),–,< 1 nM

Compound,microsomal CLint at 0.5 μM [2],Ki(h-V1a)/Ki(h-V1b) [1],Human microsomal clearance [2],Ki [3]
"CCOc1ncccc1C1(CC(=O)N2CCN(C3CCN(C)CC3)CC2)C(=O)N(S(=O)(=O)c2ccc(OC)cc2OC)c2ccc(Cl)cc21.O=C(O)C(F)(F)F (racemic) [Example 28, (±)-5-Chloro-1-(2,4-dimethoxyphenylsulfonyl)-3-(2-ethoxypyridin-3-yl)-3-{2-[4-(1-methylpiperidin-4-yl)piperazin-1-yl]-2-oxoethyl}-1,3-dihydroindol-2-one, trifluoroacetic acid salt]",75 to 100 µL/min/mg,++ (25-75),–,< 1 nM
"CCOc1ncccc1C1(CC(=O)N2CCN(C3CCN(C)CC3)CC2)C(=O)N(S(=O)(=O)c2ccccc2)c2ccc(Cl)cc21.O=C(O)C(F)(F)F (racemic) [Example 29, (±)-1-Phenylsulfonyl-5-chloro-3-(2-ethoxypyridin-3-yl)-3-{2-[4-(1-methylpiperidin-4-yl)piperazin-1-yl]-2-oxoethyl}-1,3-dihydroindol-2-one, trifluoroacetic acid salt]",< 50 µL/min/mg,+ (10-<25),–,1 to 10 nM
"CCOc1ncccc1C1(OC(=O)N2CCN(C3CCN(C)CC3)CC2)C(=O)N(S(=O)(=O)c2ccccc2)c2ccc(Cl)cc21.O=C(O)C(F)(F)F (racemic) [Example 24, 1-Phenylsulfonyl-5-chloro-3-(2-ethoxypyridin-3-yl)-2-oxo-2,3-dihydro-1H-indol-3-yl (±)-4-(1-methylpiperidin-4-yl)piperazine-1-carboxylate, trifluoroacetic acid salt]",50 to 75 µL/min/mg,++ (25-75),–,1 to 10 nM
"CCOc1ncccc1C1(CC(=O)N2CCC(N3CCN(CC)CC3)CC2)C(=O)N(S(=O)(=O)c2ccc(OC)cc2OC)c2ccc(Cl)cc21.O=C(O)C(F)(F)F (racemic) [Example 32, (±)-5-Chloro-1-(2,4-dimethoxyphenylsulfonyl)-3-(2-ethoxypyridin-3-yl)-3-{2-[4-(4-ethylpiperazin-1-yl)piperidin-1-yl]-2-oxoethyl}-1,3-dihydroindol-2-one, trifluoroacetic acid salt]",50 to 75 µL/min/mg,+ (10-<25),–,< 1 nM
